According to patent publication US11959929B2, “Method of quantifying lysergic acid diethylamide (LSD) and 2,3-dihydro-3-hydroxy-2-oxo lysergide (O-H-LSD) in human plasma” (Universitatsspital Basel, priority 2020, dated 2024):
“And” between values parts separate entries of the source, which are not always exact repeats. Equal values may be shown once.

Key:
[1] = Bench-top (short-term) stability test in human plasma, 8 hours at ambient temperature; type: physicochemical; settings: for Change in concentration [%]: 8 h at RT vs Baseline; for Accuracy: single QC replicate
Source text: (§1) Each analyte had to be stable in human plasma for at least three freeze-thaw cycles (for repeated sample preparations) and at ambient temperature for at least eight hours (maximal duration of sample preparation). Measured samples should be stable for a second injection when the first analytical run was not valid. The analytes had to be stable in the matrix at the intended storage temperatures and study duration.
(§2) An analyte was considered stable at one of the above tests when no increase or decrease of the analyte concentration of more than 15% for the mean of at least three analyzed QC samples at low, medium and at high concentration was observed.
Seven of each LLOQ, QCLOW, QCMID, QCHIGH, and ULOQ samples in human plasma were thawed at ambient temperature and kept at this temperature for 8 hours. Afterwards, the samples were worked up and analyzed. The values of the concentrations in the “short-term” samples were compared with freshly processed QC samples. Concentrations were calculated based on two freshly prepared CAL sets measured at the beginning and the end of the validation run.

[2] = Clinical application: plasma concentration-time profile of LSD and O-H-LSD after a single oral 5 μg LSD dose in healthy volunteers; type: in vivo, human; settings: three healthy volunteers
Experimental: To examine the application of the developed method, LSD and O-H-LSD concentrations were quantified in plasma samples of three healthy volunteers receiving a single oral dose of 5 μg. This corresponds to a very low LSD dose, used in LSD microdosing clinical trials (Holze et al., 2021a). The study was conducted in accordance with the Declaration of Helsinki and approved by the Medical Ethics Committee of the Academic Hospital of Maastricht and Maastricht University. The use of LSD in humans was authorized by the Dutch Drug Enforcement Administration. All volunteers provided written informed consent prior to study participation. To establish concentration time profiles, blood samples were collected in lithium heparin coated tubes at the following time points: 0, 0.5, 1, 1.5, 2, 3, 4, 6 after treatment. Blood samples were centrifuged, and plasma was frozen at −20° C. until analysis.
The application of the method was assessed by analyzing the PK of LSD and O-H-LSD in three healthy volunteers treated with an oral dose of 5 μg LSD base (FIG. 5). An oral dose of 5 μg LSD base in ethanol (Holze et al., 2021) was administered to three healthy volunteers. Plasma concentrations of LSD and O-H-LSD were quantified before and up to six hours post-treatment. […] Mean values and the standard deviations are illustrated.
The maximal plasma level of LSD and O-H-LSD was on average 178 pg/ml (SD: 30.6 pg/ml) and 10.4 pg/ml (SD: 2.59 pg/ml), respectively. LSD reached Tmax approximately after 1 hour post-treatment, whereas O-H-LSD peaked after 3 hours. The LSD concentrations measured after a dose of only 5 μg were approximately 7 to 18 times higher than the methods limit of quantification. Thus, the PK of LSD could straightforwardly be established also for very low so-called microdoses (Kuypers et al., 2019). In the case of O-H-LSD, a larger amount of plasma sample was required to determine the plasma concentration time profile after a dose of 5 μg. Three times more plasma was utilized (150 instead of 50 μl), which was extracted as outlined above using however three-fold more acetonitrile for the extraction. Sensitivity was increased by evaporating the extract and reconstituting the residue in a mixture of 150 μl of mobile phase A and mobile phase B (9/1 v/v). […] In future, it will also be considered to inject a larger amount of extract, which is in a first step retained and concentrated on a trapping column. In a second step, the direction of the flow is inverted and so that the sample can be loaded and eluted on the analytical column. This column switching procedure, will increase the sensitivity in the event that the sample can be retained on the trap column. Importantly, the time-consuming solvent evaporation step can thereby be avoided.

[3] = Reinjection reproducibility of worked-up plasma samples (overnight at 10° C. in autosampler; 1 week at −20° C.); type: physicochemical, human; settings: for Change in concentration: 1 night at 10° C. in the autosampler vs Baseline; for Change in concentration [%]: 8 days at −20° C. vs Baseline; for Accuracy: single QC replicate
Source text: as §1, §2
Worked-up and measured Cal and QC samples (prepared in human plasma) of a valid run were repeatedly analyzed. Reinjection was performed after overnight storage at 10° C. (autosampler) and after 1-week storage at −20° C. The run was checked according to the acceptance criteria for validation runs. The calculated mean values for QC samples were compared between the original and reinjected run.

[4] = LLOQ: 10 pg/ml, reinjection after 8 days at −20° C.
[5] = QCHIGH: 1000 pg/ml, reinjection after 8 days at −20° C.
[6] = QCLOW: 25 pg/ml, reinjection after 8 days at −20° C.
[7] = QCMID: 100 pg/ml, reinjection after 8 days at −20° C.
[8] = ULOQ: 10000 pg/ml, reinjection after 8 days at −20° C.

CCN(CC)C(=O)[C@@H]1C=C2c3cccc4[nH]cc(c34)C[C@H]2N(C)C1 [LSD, Lysergic acid diethylamide]
Accuracy, Intra-assay Mean ([1]; LLOQ: 10 pg/ml, 8 h at RT): 88.3% | Change in concentration [%] ([1]; LLOQ: 10 pg/ml): 3.81% | Accuracy ([1]; LLOQ: 10 pg/ml, 8 h at RT): 91.6% and 85.6% and 74.7* % and 83.10% and 92% and 86.1% and 91.7% | Accuracy, Intra-assay Mean ([1]; LLOQ: 10 pg/ml, Baseline): 91.8% | Accuracy ([1]; LLOQ: 10 pg/ml, Baseline): 96.6% and 95.7% and 83.2% | Accuracy, Intra-assay Mean ([1]; QCHIGH: 1000 pg/ml, 8 h at RT): 97.8% | Change in concentration [%] ([1]; QCHIGH: 1000 pg/ml): 1.99% | Accuracy ([1]; QCHIGH: 1000 pg/ml, 8 h at RT): 98.2% and 98.3% and 97.2% and 96.8% and 96.2% and 97.7% and 100% | Accuracy, Intra-assay Mean ([1]; QCHIGH: 1000 pg/ml, Baseline): 95.9% | Accuracy ([1]; QCHIGH: 1000 pg/ml, Baseline): 96.9% and 96.4% and 94.3% | Accuracy, Intra-assay Mean ([1]; QCLOW: 25 pg/ml, 8 h at RT): 92.7% | Change in concentration [%] ([1]; QCLOW: 25 pg/ml): 0.0885% | Accuracy ([1]; QCLOW: 25 pg/ml, 8 h at RT): 96% and 92.9% and 94.5% and 87.6% and 94.4% and 93.3% and 90% | Accuracy, Intra-assay Mean ([1]; QCLOW: 25 pg/ml, Baseline): 92.6% | Accuracy ([1]; QCLOW: 25 pg/ml, Baseline): 94% and 93.4% and 90.5% | Accuracy, Intra-assay Mean ([1]; QCMID: 100 pg/ml, 8 h at RT): 96% | Change in concentration [%] ([1]; QCMID: 100 pg/ml): −1.51% | Accuracy ([1]; QCMID: 100 pg/ml, 8 h at RT): 95.9% (2×) and 95.8% and 94.2% and 91.1% and 99.2% and 99.7% | Accuracy, Intra-assay Mean ([1]; QCMID: 100 pg/ml, Baseline): 97.5% | Accuracy ([1]; QCMID: 100 pg/ml, Baseline): 101% and 94.3% and 97.4% | Accuracy, Intra-assay Mean ([1]; ULOQ: 10000 pg/ml, 8 h at RT): 94.9% | Change in concentration [%] ([1]; ULOQ: 10000 pg/ml): −1.74% | Accuracy ([1]; ULOQ: 10000 pg/ml, 8 h at RT): 94.7% and 93.4% and 94.6% and 96.9% and 95.4% and 95% and 94.3% | Accuracy, Intra-assay Mean ([1]; ULOQ: 10000 pg/ml, Baseline): 96.6% | Accuracy ([1]; ULOQ: 10000 pg/ml, Baseline): 94.7% and 94.9% and 100% | Change in plasma concentration after 8 hours storage at room temperature ([1]; human plasma QC samples, 8 hours at room temperature, vs freshly processed QC): ≤ 3.81% | Tmax ([2]; human, 5 ug, single oral dose of 5 μg LSD base, read-out: Tmax (time of peak plasma level post-treatment)): ~1 h | maximal plasma level (average) ([2]; single oral dose of 5 μg LSD base in ethanol, LC-MS/MS, O-H-LSD measured as metabolite using 150 μl plasma): 178 pg/mL | Change in concentration ([3]; LLOQ: 10 pg/ml): 1.09% | Change in concentration ([3]; QCHIGH: 1000 pg/ml): −0.451% | Change in concentration ([3]; QCLOW: 25 pg/ml): −0.0195% | Change in concentration ([3]; QCMID: 100 pg/ml): 2.3% | Change in concentration ([3]; ULOQ: 10000 pg/ml): 0.383% | Change in concentration [%] ([3]; LLOQ: 10 pg/ml): −1.26% | Accuracy, Intra-assay Mean ([3]; LLOQ: 10 pg/ml, Baseline): 96.6% | Accuracy ([3]; LLOQ: 10 pg/ml, Baseline): 92.5% and 95% and 76.3* % and 91.3% and 98% and 109% and 93.7% | Accuracy, Intra-assay Mean [3, 4]: 95.4% | Accuracy [3, 4]: 104% and 97.5% and 86% and 95.3% and 100% and 94.7% and 90.3% | Change in concentration [%] ([3]; QCHIGH: 1000 pg/ml): −0.333% | Accuracy, Intra-assay Mean ([3]; QCHIGH: 1000 pg/ml, Baseline): 100% | Accuracy ([3]; QCHIGH: 1000 pg/ml, Baseline): 96.5% and 99.5% and 97.7% and 101% (3×) and 103% | Accuracy, Intra-assay Mean [3, 5]: 99.7% | Accuracy [3, 5]: 101% (2×) and 98.8% and 98.9% and 99.9% and 99.1% and 99.6% | Change in concentration [%] ([3]; QCLOW: 25 pg/ml): −0.948% | Accuracy, Intra-assay Mean ([3]; QCLOW: 25 pg/ml, Baseline): 101% | Accuracy ([3]; QCLOW: 25 pg/ml, Baseline): 101% (2×) and 104% and 97.9% and 102% and 103% and 99.5% | Accuracy, Intra-assay Mean [3, 6]: 100% | Accuracy [3, 6]: 95.5% and 102% and 107% and 96.4% and 106% and 92% and 103% | Change in concentration [%] ([3]; QCMID: 100 pg/ml): 1.02% | Accuracy, Intra-assay Mean ([3]; QCMID: 100 pg/ml, Baseline): 101% | Accuracy ([3]; QCMID: 100 pg/ml, Baseline): 101% (4×) and 102% and 96.6% and 107% | Accuracy, Intra-assay Mean [3, 7]: 102% | Accuracy [3, 7]: 101% and 103% (2×) and 102% (2×) and 99.9% and 105% | Change in concentration [%] ([3]; ULOQ: 10000 pg/ml): −1.85% | Accuracy, Intra-assay Mean ([3]; ULOQ: 10000 pg/ml, Baseline): 97.2% | Accuracy ([3]; ULOQ: 10000 pg/ml, Baseline): 97.9% and 97.3% and 98.1% and 96.5% and 97.1% and 98.7% and 95% | Accuracy, Intra-assay Mean [3, 8]: 95.4% | Accuracy [3, 8]: 97.4% and 96.6% and 95.2% and 92.9% and 95.1% and 96.4% and 94.2% | Deviations of the means of the QCs of the two runs (reinjection) after 8 days at −20° C. ([3]; worked-up human plasma samples, 8 days at −20° C.): −1.85% to +1.02 | Deviations of the means of the QCs of the two runs (reinjection) after overnight storage at 10° C. ([3]; worked-up human plasma samples, overnight at 10° C. in the autosampler): −0.451% to +2.3
